Data on 7 compounds can be found in paper PMC11650735, “Challenging Reported Frizzled-Targeting Compounds in Selective Assays Reveals Lack of Functional Inhibition and Claimed Profiles” (ACS Pharmacology & Translational Science, 2024).

In series [1] the test system is CHIR99021-stimulated Wnt pathway activation. Kind of series: TopFlash assay in reporter wild-type HEK293T line, CHIR99021-stimulated. The series is classed as cell-based, human. Conditions: for inhibition of CHIR99021-stimulated response compared with Wnt3a-stimulated, in words: wild-type reporter HEK293T, TopFlash.
A further series has as its system ΔFZD1–10 HEK293T cells. Conditions: for toxicity / general transcriptional inhibition by Renilla signal, in words: Renilla luciferase.
Series [2] concerns HEK293T cells. Description: Renilla luciferase (pRL-CMV) toxicity/general transcription readout in wild-type reporter HEK293T. Conditions: for IC50: Homo sapiens, HEK-293T, read-out: IC50 (Renilla).
The subject of series [3] is CHIR99021-induced Wnt pathway activation (FZD-independent). Kind of series: TopFlash in ΔFZD1–10 HEK293T without FZD (pcDNA), CHIR99021-stimulated.
Series [4] deals with FZD7. Also on record: method as in PMID 29207657. Conditions: claimed FZD7 inhibition; cited from earlier work.
The test system of series [5] is individually reexpressed FZDs (1,2,4,5,7,8, and 10). Kind of series: TopFlash in ΔFZD1–10 HEK293T, panel of individually reexpressed FZDs, Wnt3a-stimulated (collective statements).
For series [6], the system named is Wnt3a-stimulated Wnt pathway activation. Kind of series: TopFlash assay in reporter wild-type HEK293T line, Wnt3a-stimulated. Conditions: for IC50: Homo sapiens, HEK-293T, Wnt3a. The series is classed as cell-based, human.
Series [7] deals with Wnt signaling in TopFlash-transfected 3T3 cells. Also on record: method as in PMID 26504084. Conditions: read-out: potency; cited from earlier work.
Series [8] relates to Wnt3a/FZD7-mediated cytoplasmic β-catenin accumulation. Description: Western blot of FZD7-dependent cytoplasmic β-catenin accumulation in ΔFZD1–10 HEK293T. The series is classed as cell-based, human. Conditions: 10 μM, FZD7-transfected ΔFZD1–10 HEK293T. The method, then:
In 24-well plates, a ΔFZD1–10 HEK293T cell line was reinfected with a baculovirus expressing FZD7 or a control baculovirus at a density of 100,000 cells/well. The new medium containing the 10 μM F7H-28 derivative and the indicated Wnt activators (500 ng/mL Wnt3a or 1 μM CHIR99021) was added and incubated until the next day. The medium was then removed, and 500 μL of 1× PBS was used twice for washing. After adding 30 μL of ice-cold 1× TBS supplemented with 4 mM EDTA and 1× protease inhibitor cocktail, the cells were lysed by scraping and passed through an insulin 30G needle 10 times. The samples were centrifuged at 18,000g and 4 °C for 10 min to remove debris. Western blot was performed on 15 μL of each supernatant and developed using antibodies against α-tubulin and β-catenin.
For orientation: Immunoblotting shows a protein as a band on a membrane.

In series [9] the target is T1, FZD7 (Homo sapiens, UniProt O75084). Description: cell-based.
The subject of series [10] is FZD7. Also on record: method as in PMID 37669317. Conditions: cited from earlier work.
Series [11] deals with T1, FZD7. Kind of series: TopFlash in ΔFZD1–10 HEK293T with reexpressed FZD7, Wnt3a-stimulated. Conditions: FZD7 reexpression, firefly TopFlash.
Series [12] concerns the target T1, FZD7. Kind of series: NanoLuc-substituted TopFlash reporter in ΔFZD1–10 HEK293T cotransfected with FZD7, Wnt3a.
Another series concerns the target firefly luciferase (Photinus pyralis, UniProt P08659). Kind of series: Compound added to prestimulated TopFlash cells immediately prior to lysis and measurement. Conditions: compound added directly before cell lysis.
The test system of another series is mouse FZD8. On the set-up: method as in PMID 32049522. Conditions: HEK293T FZD1,2,7 knockout + mouse FZD8; cited from earlier work.
The subject of series [13] is HEK293T cells.
In another series the target is T2, FZD4 (Mus musculus, UniProt Q61088).
T2 sequence (Q61088 37-537): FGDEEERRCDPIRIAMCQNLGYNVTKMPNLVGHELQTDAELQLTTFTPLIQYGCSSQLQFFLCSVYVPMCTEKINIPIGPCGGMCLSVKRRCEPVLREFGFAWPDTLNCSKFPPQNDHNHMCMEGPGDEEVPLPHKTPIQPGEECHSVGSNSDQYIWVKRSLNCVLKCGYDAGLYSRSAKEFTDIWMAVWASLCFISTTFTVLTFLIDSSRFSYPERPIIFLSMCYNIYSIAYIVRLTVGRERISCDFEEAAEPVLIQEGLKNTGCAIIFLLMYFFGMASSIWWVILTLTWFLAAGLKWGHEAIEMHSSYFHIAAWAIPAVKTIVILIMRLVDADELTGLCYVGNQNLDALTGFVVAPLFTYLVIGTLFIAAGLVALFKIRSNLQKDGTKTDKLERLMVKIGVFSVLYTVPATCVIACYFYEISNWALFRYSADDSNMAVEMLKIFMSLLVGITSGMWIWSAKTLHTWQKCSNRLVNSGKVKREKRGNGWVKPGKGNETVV
Kind of series: TopFlash in ΔFZD1–10 HEK293T with reexpressed FZD4, Wnt3a-stimulated. Conditions: ΔFZD1–10 HEK293T + FZD4, Wnt3a, up to 50 μM.

[14] abbreviates: read-out: IC50 / potency, ΔFZD1–10 HEK293T without FZD, CHIR99021.

“Also recorded” adds a separate entry of the source. Like-named read-outs stand apart in the source and are kept apart here.

firefly luciferase, sequence (P08659 whole entry): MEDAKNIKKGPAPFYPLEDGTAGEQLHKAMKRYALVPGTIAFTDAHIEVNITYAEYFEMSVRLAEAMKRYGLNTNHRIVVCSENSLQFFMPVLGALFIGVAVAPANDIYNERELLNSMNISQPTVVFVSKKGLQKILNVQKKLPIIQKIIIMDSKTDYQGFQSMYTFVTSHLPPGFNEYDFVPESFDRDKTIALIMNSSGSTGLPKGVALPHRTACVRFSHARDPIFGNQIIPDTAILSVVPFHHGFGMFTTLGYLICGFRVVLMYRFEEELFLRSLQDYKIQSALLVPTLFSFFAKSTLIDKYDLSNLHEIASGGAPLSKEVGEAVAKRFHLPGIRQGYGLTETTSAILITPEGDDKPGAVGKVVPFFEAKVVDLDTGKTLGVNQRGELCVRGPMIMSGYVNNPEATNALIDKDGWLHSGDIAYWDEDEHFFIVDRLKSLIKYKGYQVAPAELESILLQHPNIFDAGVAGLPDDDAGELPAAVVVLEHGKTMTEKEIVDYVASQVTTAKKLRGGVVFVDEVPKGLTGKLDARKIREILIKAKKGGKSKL

Consider `O=C(/C=C/c1ccc2c(c1)OCO2)Nc1ccc(-n2cnc3ccccc32)cc1` [SRI35959], for which the “inhibition of CHIR99021-stimulated response compared with Wnt3a-stimulated, in words” value in series [1] was “slightly (but significantly) better”. Moreover, the “toxicity / general transcriptional inhibition by Renilla signal, in words” value in the series with ΔFZD1–10 HEK293T cells is “some toxicity”. Further, in the series with HEK293T cells [2] (wild-type reporter HEK293T, Renilla luciferase), the “toxicity by effect on Renilla luciferase, in words” value is listed as “some toxicity”. The IC50 is 10 µM in [3] (setting [14]) and around 3 µM in the series with FZD7 [4].

Regarding `COc1ccc(C(=O)Nc2ccccc2C(=O)NC(C(=O)NNC(=O)COc2ccccc2)C(C)C)cc1` (centres unmarked) [3235-0367], in series [1], the “inhibition of CHIR99021-stimulated response compared with Wnt3a-stimulated, in words” value is “overlapping inhibition curve”. The IC50 in the series on ΔFZD1–10 HEK293T cells (read-out: IC50 (Renilla), Renilla luciferase signal) is above 50 µM; with HEK293T cells [2], above 50 µM; in series [3] (setting [14]), around 20 µM; in series [6] (wild-type reporter HEK293T, TopFlash), around 8 µM; in [7] it was 7.1 µM. Further, the “selectivity among FZDs, in words” value in series [5] (individual FZDs including FZD8) was “no significant selectivity”.

Consider `O=C(Nc1ccc([N+](=O)[O-])cc1Cl)c1cc(Cl)ccc1O` [niclosamide], for which the IC50 in series [1] (Homo sapiens, HEK-293T, wild-type HEK293T reporter line) stood at 0.1 µM; in series [5] (all individually reexpressed FZDs, Wnt3a), 0.1 µM; in [3] (CHIR99021 in cells deprived of any FZD protein), 0.1 µM; in series [6] (wild-type HEK293T reporter line), 0.1 µM.

Turning to `CSCC[C@H](NC(=O)[C@@H](NC(=O)[C@H](Cc1c[nH]cn1)NC(=O)[C@H](CS)NC(=O)[C@H](Cc1c[nH]c2ccccc12)NC(=O)[C@H](Cc1ccccc1)NC(=O)[C@H](CCC(=O)O)NC(=O)[C@H](CC(C)C)NC(=O)[C@H](CC(=O)O)NC(=O)[C@H](CC(=O)O)NC(=O)[C@H](CO)NC(=O)[C@@H]1CCCN1C(=O)[C@@H](N)CC(C)C)C(C)C)C(=O)N[C@@H](Cc1ccc(O)cc1)C(=O)O` [Fz7–21, LPSDDLEFWCHVMY], the “toxicity / general transcriptional inhibition by Renilla signal, in words” value with ΔFZD1–10 HEK293T cells is reported as “no unspecific toxicity”.

As to `O=C(CSc1ccc(NC(=O)c2ccc(F)cc2)cc1)Nc1nc(-c2ccccc2)cs1` [F7H-28], in series [8], the “effect on cytoplasmic β-catenin signal (Western blot), in words” value is listed as “does not reduce this signal”. In addition, the IC50 was above 2 µM in the series with HEK293T cells [2], above 50 µM on FZD7 [9] and 0.04 µM in the series with FZD7 [10]. In addition, on FZD7 [11], the “potency compared with CHIR99021-stimulated cells, in words” value is on record as “same potency”. Besides, the “effect on NanoLuc Wnt reporter, in words” value at FZD7 [12] is given as “does not report significant changes”. In addition, the “direct effect on firefly luciferase, in words” value at firefly luciferase was “inhibits the firefly luciferase enzymatic activity”.

In the case of `NC(=O)N1c2ccccc2C=Cc2ccccc21` [carbamazepine], the “inhibition of Wnt3a-induced signal, in words” value in the series with mouse FZD8 is listed as “partially inhibited”. Also, the “inhibition of CHIR99021-stimulated response compared with Wnt3a-stimulated, in words” value in series [1] is “slightly (but significantly) better”. The “toxicity / general transcriptional inhibition by Renilla signal, in words” value in the series with ΔFZD1–10 HEK293T cells is on record as “some toxicity”. In the series on HEK293T cells [13], the “toxicity by effect on Renilla luciferase, in words” value was “some toxicity”. In [3] (setting [14]), the IC50 is around 50 µM.

For `O=C(Nc1cc(O)cc(-c2cccs2)c1)Nc1ccc2ccccc2c1` [FzM1], the “effect on FZD4-dependent Wnt3a signaling, in words” value at FZD4 is given as “no statistically discernible effect”. Moreover, the “activity against Wnt signaling, in words” value in [5] (any of the FZDs in ΔFZD1–10 HEK293T, Wnt3a, up to 50 μM) is reported as “no detectable activity; also recorded: no statistically discernible effect”; in series [6] (wild-type HEK293T, up to 50 μM) it was “no detectable activity; also recorded: no statistically discernible effect”.
